Patent publication US20050153361A1, “Therapeutic and diagnostic applications of protein disulphide isomerases” (priority 2003, published 2005)
Entries after “also recorded” stand apart in the source; their conditions may differ.

Key:
[1] = tested on: human dermal microvascular endothelial cells (HDMEC); assay: FACS analysis of apoptosis (Annexin V-FITC / propidium iodide) after siRNA transfection; type: cell-based; settings: for cell population being apoptotic: 10 nM siRNA
Method: (§1) Transfection of microvascular endothelial cells with siRNA: EndoPDI specific (5′-[…]-3′) and PDI specific (5′-[…]-3′) siRNA oligos were synthesized using the SilencerTM siRNA Construction kit (Ambion, Huntingdon, UK) following manufacturer's instructions. HDMEC (5×10^5 cells) were plated onto 0.2% gelatin coated 10 cm petri dishes and incubated for 24 h. Cells were then transfected with 10 nM EndoPDI and/or PDI siRNA using oligofectamine reagent (Invitrogen) according to the manufacturer's instructions. The cells were then incubated for 24 h prior to hypoxia for 16 h (0.1% O2, 5% CO2 and 94.9% N2) or continuation of normoxic exposure for 16 h before performing FACS analysis as described.
FACS Analysis: To distinguish apoptotic from necrotic cells, double staining for exposed phosphatidylserine and propidium iodide (PI) exclusion was performed as follows: Cells were harvested, washed twice with PBS and resuspended in binding buffer (10 mM HEPES/NaOH, pH 7.4, 140 mM NaCl, 2.5 mM CaC12). Five μl Annexin V-FITC antibody (Pharmingen, San Diego, USA) and 10 μl PI (50 μg/ml) were added to the cells. After incubation for 15 min in the dark at room temperature, the cells were analysed by a FACScan. Controls of unstained cells, cells stained with Annexin V-FITC only and cells stained with PI only were used to set up compensation and quadrants.

[2] = tested on: endothelin-1 secretion by HDMEC; assay: Endothelin-1 secretion by HDMEC measured by ELISA after siRNA treatment; type: cell-based, human; settings: under hypoxia
Method: as §1
Measurement of endothelin-1 secretion by ELISA: The secretion of endothelin-1 by endothelial cells was measured using a human endothelin-1 ELISA (R&D Systems, Abindgdon, UK) following manufacturer's instructions. Briefly, 50,000 cells were treated with RNAi oligos as before, the medium collected and diluted 1/25 for use in the ELISA.

[3] = tested on: adrenomedullin secretion by HDMEC; assay: Adrenomedullin secretion by HDMEC measured by radioimmunoassay after siRNA treatment; type: cell-based, human; settings: under hypoxia
Method: as §1
Measurement of adrenomedullin by Radioimmunoassay: The secretion of adrenomedullin by endothelial cells was measured using an adrenomedullin radioimmunoassay (Peninsula Laboratories Europe, Ltd, Merseyside, England) following manufacturer's instructions. Briefly, 50,000 cells were treated with RNAi oligos as before, the medium collected and used in the radioimmunoassay.

[4] = tested on: CD105 cell surface expression on HDMEC; assay: CD105 cell surface expression on HDMEC by FACS after siRNA treatment; type: cell-based, human; settings: under hypoxia
Method: as §1
The cell surface expression of CD105 was quantified by incubating 10^5 cells per tube with 50 μl (10 μl/ml in PBS) of monoclonal antibody to CD105 on ice for 1 h and washed twice with cold PBS. After incubation with FITC-labelled rabbit anti-mouse F(ab)2 (1/40 DAKO) for 30 min on ice, the cells were washed and resuspended in 0.3 ml of 2% buffered formalin and analyzed on a FACScan.

EndoPDI mRNA = assay: RNase protection analysis of EndoPDI mRNA after siRNA transfection; type: cell-based, human; settings: HDMEC, 10 nM siRNA
Method: RNase Protection Assay. Total RNA was extracted from cells in culture using TRI reagent (Sigma, Poole, Dorset, UK). RNase protection assays were performed in duplicate on 10-30 μg of total RNA as described (16). […] The protected fragment size for EndoPDI was 300 nucleotides. In each assay, a positive and negative (tRNA only) control and undigested riboprobes were analysed. Intensity of signal, quantified on a PhosphorImager (Molecular Dynamics, Chesham, Buckinghamshire, United Kingdom) was calculated as the ratio of the signal of interest to U6 mRNA to correct for variations in loading.
as §1

EndoPDI protein = assay: Western blotting of EndoPDI protein after siRNA transfection; type: cell-based, human; settings: HDMEC, 10 nM siRNA
Source text: Production of polyclonal antibodies to EndoPDI and Western blotting; The peptide of sequence ADGEDGQDPHSKC was synthesized by the Protein and Peptide Chemistry Department of Cancer Research UK, using standard techniques. This sequence corresponds to amino acids 52 to 63 of the human EndoPDI protein sequence with an additional cysteine residue added to the C-terminus to enable coupling to a carrier protein. The peptide was coupled to Imject® Maleimide Activated mcKLH (Pierce, Rockford, USA) following the manufacturer's instructions and diluted with Freunds adjuvant before injection into rabbits. A standard immunisation protocol was followed with 200 μg immunogen used for the first injection and 100 μg immunogen for subsequent boosts. The test bleeds were screened against pre-bleeds by ELISA to identify the presence of antibodies to EndoPDI in the rabbit serum.
as §1

[5] = hypoxia 16 h (0.1% O2), listed as siRNA specific to EndoPDI
[6] = normoxia, listed as siRNA specific to EndoPDI

Substance | apoptotic population compared with controls ([1]; HDMEC, hypoxia (0.1% O2, 16 h)) | cell population being apoptotic ([1]; HDMEC, hypoxia (0.1% O2, 16 h)) [%] | apoptotic population compared with controls ([1]; HDMEC, normoxia) | cell population being apoptotic ([1]; HDMEC, normoxia) [%] | endothelin-1 secretion [2] | adrenomedullin secretion [3] | CD105 cell surface expression [4] | EndoPDI mRNA expression (EndoPDI mRNA; [5]) | EndoPDI mRNA expression (EndoPDI mRNA; normoxia) | EndoPDI mRNA expression (EndoPDI mRNA; [6]) | EndoPDI protein expression (EndoPDI protein; [5]) | EndoPDI protein expression (EndoPDI protein; normoxia) | EndoPDI protein expression (EndoPDI protein; [6]) | necrotic cell population ([1]; HDMEC, hypoxia) | HDMEC survival ([1]; normoxia) | share of the cell population with marked reduction in CD105 expression ([4]; two peaks apparent) [%]
PDI specific siRNA: PDI specific siRNA oligo, 5′-GACCTCCCCTTCAAAGTTGTT-3′ (listed as DNA, chemistry not given here) [reference compound] | significant increase | 48 | significant increase | 55 | significant decrease | little effect | little effect | – | – | – | – | – | – | – | – | –
EndoPDI specific siRNA: EndoPDI specific siRNA oligo, 5′-GAAGCTGTGAAGTACCAGGTT-3′, synthesized with the Silencer siRNA Construction kit (listed as DNA, chemistry not given here) | significant increase | 12 | – | 4.5 | even greater reduction | significantly reduced | marked reduction | loss of EndoPDI expression; also recorded: complete loss | completely blocked | complete loss | loss of EndoPDI expression; also recorded: complete loss | completely blocked | complete loss | significant increase | no effect | 50
